Experiment [1] has as its system HT-29 cells (colorectal adenocarcinoma). The experiment can be described thus: Inhibition of cancer cell proliferation, HT-29 (CellTiterGlo, 72 hours). The class given is cell-based. To be noted: Homo sapiens. On the procedure: Measurement of Inhibition of Cancer Cell Proliferation (HT-29/Colorectal Adenocarcinoma)
The following protocol used an HT-29 cell line, which cell line is a model for colorectal adenocarcinoma. HT-29 cells were split and 3000 cells in 100 μl of growth medium were added per well of a flat-bottom 96-well plate. A two-fold test compound solution in serum-free RPM1640 was made, starting at 5,000 nM. Then, 3-fold serial dilutions were made across the plate from well 1 to well 11. Well 12, the last well in a row on the plate, was left as untreated control. 100 μl compound solutions were then transferred to the wells, so the total volume of media was 200 μl per well. Plates were returned to a 37° C. incubator, and the cells were cultured for 72 hours. To measure cell proliferation after 72 hours, media was discarded from the plates, 50 μl/well of fresh medium was added, and 50 μl CellTiterGlo solution was added (Promega Cat#G7573). The plate was covered with a dark lid and incubated for 10 min. A white sealing tape was applied to the bottom of the plate, and the plate was read in a luminescence plate reader. […] A 2-fold serial dilution was used to generate 8 cell densities from 50,000-390 cells per well in 50 μl media. 50 μl CellTiterGlo was added per well, and the plate was read in a luminescence plate reader after 10 min. The reading was plotted vs. cell number to generate a standard curve and the equation of the curve fit. The compound-treated sample luminescence readings were converted to cell numbers using the curve-fit equation. The percent of inhibition, using untreated control as 100% growth, was then calculated. GI50 was then calculated by GraphPad Prism.
(In general: Cellular ATP, detected with luciferase, serves as a proxy for viable cell number.)

The next experiment deals with T1, MEK1 activated ERK1 (Homo sapiens, UniProt P27361).
T1 construct: purchased Millipore (Billerica, Mass.) 14-439-K
T1 sequence (P27361 whole entry): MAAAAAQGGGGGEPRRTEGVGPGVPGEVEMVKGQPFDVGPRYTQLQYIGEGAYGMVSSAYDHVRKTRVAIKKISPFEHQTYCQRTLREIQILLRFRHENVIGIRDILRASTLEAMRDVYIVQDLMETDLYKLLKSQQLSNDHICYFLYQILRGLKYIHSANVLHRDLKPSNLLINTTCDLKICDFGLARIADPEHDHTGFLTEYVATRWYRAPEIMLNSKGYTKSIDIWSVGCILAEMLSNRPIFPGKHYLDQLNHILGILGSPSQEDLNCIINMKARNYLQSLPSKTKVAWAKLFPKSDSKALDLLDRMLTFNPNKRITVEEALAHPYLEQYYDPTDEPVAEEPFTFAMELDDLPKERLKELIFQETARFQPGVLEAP
The experiment is described as follows: Omnia continuous-read kinase assay for potency against MEK1 activated ERK1. The class given is biochemical. An outline of the steps:
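Apparent IC50 came from initial reaction slopes (RFU vs time) plotted against log inhibitor with a variable-slope fit. Reactions were started with ERK1 (4 nM final) added to 50 μM ATP, roughly at its appKM, and 10 μM Sox-conjugated ST17 peptide in 20 mM Tris pH 7.5, 5 mM MgCl2. Fluorescence was monitored every 71 seconds.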

The test system of experiment [2] is ERK1/2 phosphorylation of p90RSK in HT29 cells. The experiment can be described thus: pRSK MSD Assay in HT29 cells. The experiment is classed as cell-based. To be noted: Homo sapiens, HT-29, read-out: ERK1/ERK2 PRSK MSD HT29 EC50. An outline of the steps:
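Serum-starved HT29 cells (0.1% FBS overnight) treated with test compound for 120 min at 37° C, then lysed with protease and phosphatase inhibitors. Phospho-p90RSK quantified by MSD sandwich immunoassay: RSK capture antibody, phospho-RSK detection antibody plus Sulfo-tagged antibody, electrochemiluminescence read.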

Experiment [3] has as its system ERK1/2 phosphorylation of p90RSK in A375 cells. The experiment is described as follows: Detection of total and phosphor-RSK by MSD ELISA (A375). The class given is cell-based. To be noted: Homo sapiens, A-375, read-out: ERK1/ERK2 PRSK A375 EC50. On the procedure: Detection of Total and Phosphor-RSK by MSD ELISA (A375)
(§1) The protocol below describes an assay to measure the kinase activity of ERK1/2 to phosphorylate a substrate, p90RSK, in the presence or absence of a test compound.
A375 cells were grown in DMEM/10% FBS. Twenty four hours prior to the assay, 50,000 cells per well were plated in a 96 well flat bottom plate. Once cells attached to the plate, the medium was replaced with 100 ul of DMEM/0.1% FBS. Cells were cultured overnight in an incubator at 37° C.
Compound stock solutions of 10 mM in DMSO were prepared. 1000× dilutions were then prepared in DMSO. 1 uL of DMSO solution was then transferred to 1 ml DMEM/0.1% FBS in a deep well plate. Cell plate media was discarded, followed by addition of 100 uL of the compound-containing media. The preparation was incubated at 37° C. for 2 hrs.
Cell lysates were prepared as described below.
pRSK or Total RSK MSD Assay
MSD plates: Blank MSD plates were coated with 30 uL capture antibody (BD 610226) at a final concentration of 1 ug/mL in PBS. Both pRSK and total RSK MSD assays used the same capture antibody at the same concentration. Antibody stock concentration was 250 ug/mL. Once antibody solution was added to the MSD plate, the sides were tapped to be certain it was coated completely (visual inspection). It was then covered and placed at 4° C. overnight on a level surface.
Block MSD Plate: The coating antibody was removed and the plate was washed on a plate washer in MSD wash buffer. The last bit of wash solution was tapped out and 150 uL/well of 3% BSA in MSD wash buffer was added in. The preparation was placed on a shaker at room temperature for at least an hour.
Add samples: Media was removed from compound-treated cells and replaced with 55 uL/well MSD cell lysis buffer containing protease and phosphotase I & II inhibitors. The preparation was incubated on a shaker in a cold room for 30-45 min. The blocked MSD plate was washed a on plate washer, tapping out the last bit of wash solution, followed by addition of 50 uL (of the 55 ul) cell lysate in a well-well transfer. The preparation was covered and incubated on a shaker at room temp for 2 hours. The lysate was removed, washed on a plate washer 3 times, and the last bit of wash buffer was tapped out and replace with 25 uL/well detection antibody (described below).
For pRSK detection, a pRSK antibody stock of 21 ug/mL was prepared as follows: 1 ug/mL pRSK Ser380 antibody (Cell Signaling Technology, Cat. #9335)+1:750 anti-rabbit SulfoTag (Mesoscale Discovery, Cat. # R32AB-1) in 1% BSA in MSD wash buffer.
(§2) For total RSK detection, a total RSK antibody stock of 200 ug/mL was prepared as follows: 1 ug/mL total RSK (Santa Cruz sc-231G) antibody+1:750 anti-goat SulfoTag (from MSD, R32AG-1) in 1% BSA in MSD wash buffer.
The plate was incubated for 1 hr at room temperature on a shaker, followed by three washings. The last bit of wash buffer was tapped out. 150 uL/well 1×MSD Read buffer was added and the plate was then analyzed.

The test system of experiment [4] is ERK1/2 phosphorylation of p90RSK in HCT116 cells. The experiment can be described thus: Detection of total and phospho-RSK by MSD ELISA (HCT116). The class given is cell-based. To be noted: Homo sapiens, HCT-116, read-out: ERK1/ERK2 PRSK HCT116 EC50. On the procedure:
Detection of Total and Phospho-RSK by MSD ELISA (HCT116)
as §1
HCT116 cells were grown in RPMI/10% FBS. Prior to the assay, 50,000 cells per well were plated in a 96 well flat bottom plate. Cells were cultured overnight in an incubator at 37° C.
Compound stocks were 10 mM in DMSO. A 1000× dilution was made in DMSO. 1 uL of the DMSO solution was transferred to 1 ml RPMI/10% FBS in a deep well plate. Media in the cell plate was discarded, and 100 uL of the compound-containing media was added. The preparation was incubated at 37° C. for 2 hrs.
Preparation of cell lysates are described below.
pRSK or total RSK MSD Assay
MSD plates: Blank MSD plates were coated with 30 uL capture antibody (BD 610226) at a final concentration of 1 ug/mL in PBS. Both pRSK and total RSK MSD assays used the same capture antibody at the same concentration. Antibody stock concentration was 250 ug/mL. Once antibody solution was added to MSD plate, the sides were tapped to be certain it was coated completely (visual inspection). It was then covered and placed at 4° C. overnight on a level surface.
Block MSD Plate: The coating antibody was removed and the plate was washed on a plate washer in MSD wash buffer. The last bit of wash solution was tapped out and 150 uL/well 3% BSA (MSD Blocker A) in MSD wash buffer was added. The preparation was placed on a shaker at room temperature for at least an hour.
Add samples: Media was removed from compound-treated cells and replaced with 55 uL/well MSD cell lysis buffer containing protease and phosphotase I & II inhibitors. The preparations was incubate on a shaker in a cold room for 30-45 min. The blocked MSD plate was washed on a plate washer, and the last bit of wash solution was tapped out. Next was added 50 uL (of the 55 uL) cell lysate in a well-well transfer. The preparation was covered and incubated on shaker at room temp for 2 hours. The lysate was then removed and washed on plate washer 3 times. The last bit of wash buffer was then tapped out and replaced with 25 uL/well detection antibody (described below).
For pRSK detection, a pRSK antibody stock of 21 ug/mL was prepared as follows: 1 ug/mL pRSK Ser380 antibody (Cell Signaling Technology, Cat. #9335)+1:750 anti-rabbit SulfoTag (from MSD, R32AB-1) in 1% BSA in MSD wash buffer.
as §2
The plate was incubated for 1 hr at room temperature on a shaker, followed by three washes. The last bit of wash buffer was tapped out. Next, 150 uL/well 1×MSD Read buffer was added and the plate was analyzed by the MSD reader.

Setting [5] is: MEK1 activated ERK1, ATP at KM, read-out: ERK1 Omnia WT ATP KM IC50.

Where two headings read alike, the source gives them in different places.

One may read the GI50 as the concentration giving 50% growth inhibition. Read a low GI50 as more potent growth inhibition. What is called IC50 is the concentration needed to halve the response being measured. In turn, `C=CC(=O)Nc1ccccc1Oc1nc(NC(C)(C)C)ncc1C(N)=O` [Compound I-267, 4-(2-acrylamidophenoxy)-2-(tert-butylamino)pyrimidine-5-carboxamide] showed a GI50 in experiment [1] greater than 1000 nM. Moreover, the IC50 on MEK1 activated ERK1 (setting [5]) was in the range of 101 to 500 nM. For the same compound, in experiment [2], the EC50 was greater than 1000 nM.
For the compound `C=CC(=O)Nc1cc(C)ccc1Nc1nc(N[C@@H]2CCN(S(=O)(=O)C=C)C2)ncc1C(F)(F)F` [Compound I-280, (R)—N-(5-Methyl-2-((5-(trifluoromethyl)-2-((1-(vinylsulfonyl)pyrrolidin-3-yl)amino)pyrimidin-4-yl)amino)phenyl)acrylamide], the EC50 in experiment [3] and in experiment [4] was greater than 1000 nM throughout.
In experiment [1], `C=CC(=O)Nc1ccccc1Nc1nc(Nc2cc(C(N)=O)c(OCCCNC(=O)CCCC(=O)NCCCOCCOCCOCCCNC(=O)CCCC[C@@H]3SC[C@@H]4NC(=O)N[C@@H]43)cc2C)ncc1Cl` [Compound I-299, N^1-(3-(4-((4-((2-acrylamidophenyl)amino)-5-chloropyrimidin-2-yl)amino)-2-carbamoyl-5-methylphenoxy)propyl)-N^5-(15-oxo-19-((3aS,4S,6aR)-2-oxohexahydro-1H-thieno[3,4-d]imidazol-4-yl)-4,7,10-trioxa-14-azanonadecyl)glutaramide] yielded a GI50 greater than 1000 nM. Besides, the IC50 on MEK1 activated ERK1 (setting [5]) lay within 101 to 500 nM. Further, the EC50 in experiment [2] was greater than 1000 nM.
In experiment [1], `C=CC(=O)Nc1ccccc1Nc1nc(NC2CCN(C(=O)CCCC(=O)NCCCOCCOCCOCCCNC(=O)CCCC[C@@H]3SC[C@@H]4NC(=O)N[C@@H]43)CC2)ncc1Cl` [Compound I-300, 5-(4-((4-((2-acrylamidophenyl)amino)-5-chloropyrimidin-2-yl)amino)piperidin-1-yl)-5-oxo-N-(15-oxo-19-((3aS,4S,6aR)-2-oxohexahydro-1H-thieno[3,4-d]imidazol-4-yl)-4,7,10-trioxa-14-azanonadecyl)pentanamide] showed a GI50 greater than 1000 nM. Also, the IC50 at MEK1 activated ERK1 (setting [5]) fell in the range of 101 to 500 nM. Also, the EC50 in experiment [2] is greater than 1000 nM.
In experiment [1], `C=CC(=O)Nc1ccccc1Nc1nc(Nc2ccc(NC(=O)CCCC(=O)NCCCOCCOCCOCCCNC(=O)CCCC[C@H]3SC[C@H]4NC(=O)N[C@H]43)cc2OC)ncc1Cl` [Compound I-301, N^1-(4-((4-((2-acrylamidophenyl)amino)-5-chloropyrimidin-2-yl)amino)-3-methoxyphenyl)-N^5-(15-oxo-19-((3aR,4R,6aS)-2-oxohexahydro-1H-thieno[3,4-d]imidazol-4-yl)-4,7,10-trioxa-14-azanonadecyl)glutaramide] had a GI50 greater than 1000 nM. On MEK1 activated ERK1 (setting [5]), the half-inhibitory concentration (IC50) lay in the range of 501 to 999 nM. The EC50 in experiment [2] is greater than 1000 nM.
Take `C=CC(=O)Nc1ccccc1Nc1nc(Nc2c[nH]nc2C)ncc1C(F)(F)F` [Compound I-330, N-(2-((2-((3-methyl-1H-pyrazol-4-yl)amino)-5-(trifluoromethyl)pyrimidin-4-yl)amino)phenyl)acrylamide]: the EC50 is 101 to 500 nM in experiment [3] and greater than 1000 nM in experiment [4].
As to `C=CC(=O)Nc1cc(C)ccc1Nc1nc(Nc2cnnc(Cl)c2)ncc1C(F)(F)F` [Compound I-331, N-(2-((2-((6-chloropyridazin-4-yl)amino)-5-(trifluoromethyl)pyrimidin-4-yl)amino)-5-methylphenyl)acrylamide], the figures for the EC50 in experiment [3] and in experiment [4] were 501 to 999 nM and greater than 1000 nM, respectively.
In the same order, the values of `CCC(=O)Nc1cc(C)ccc1Nc1nc(Nc2cc(OC)ncc2C)ncc1C(F)(F)F` [Compound I-352, N-(2-((2-((2-methoxy-5-methylpyridin-4-yl)amino)-5-(trifluoromethyl)pyrimidin-4-yl)amino)-5-methylphenyl)propionamide] are greater than 1000 nM and greater than 1000 nM.
On to `C=CC(=O)Nc1cc(OC(C)(C)C(N)=O)ccc1Nc1nc(Nc2cc(OC)ncc2C)ncc1C(F)(F)F` [Compound I-414, N-(5-((1-amino-2-methyl-1-oxopropan-2-yl)oxy)-2-((2-((2-methoxy-5-methylpyridin-4-yl)amino)-5-(trifluoromethyl)pyrimidin-4-yl)amino)phenyl)acrylamide], for which the EC50 in experiment [3] and in experiment [2] was less than 100 nM throughout. The IC50 on MEK1 activated ERK1 (ATP at KM, WT) was less than 100 nM.

Source of the values: US9561228B2 (Celgene Avilomics Research, Inc., priority 2013, dated 2017).
